From US20100305068A1, “COMPOUNDS AND METHODS FOR MODULATING PROTEIN TRAFFICKING” (priority 2006, published 2010)
Where two headings read alike, the source gives them in different places.

System: pdr5 ypt1^ts cells
Assay: microbe, parasite or virus in culture
Assay type: cell-based, yeast
Conditions: for minimal effective concentration: Saccharomyces cerevisiae, lowest concentration tested giving growth above the 0 μM background, read-out: ypt1-ts MRC (minimal rescue concentration); for minimal effective concentration / optical density, ypt1-ts, 0.39 / optical density, ypt1-ts, 0.78 / optical density, ypt1-ts, 1.56 / optical density, ypt1-ts, 3.13 / optical density, ypt1-ts, 6.25 / optical density, ypt1-ts, 12.5 / optical density, ypt1-ts, 25: Table 2; for optical density, ypt1-ts, 0.39: 0.39 μM compound; for optical density, ypt1-ts, 0.39 / optical density, ypt1-ts, 0.78 / optical density, ypt1-ts, 1.56 / optical density, ypt1-ts, 3.13 / optical density, ypt1-ts, 6.25 / optical density, ypt1-ts, 12.5 / optical density, ypt1-ts, 25: background (0 μM) 0.058; for optical density, ypt1-ts, 0.78: 0.78 μM compound; for optical density, ypt1-ts, 1.56: 1.56 μM compound; for optical density, ypt1-ts, 3.13: 3.13 μM compound; for optical density, ypt1-ts, 6.25: 6.25 μM compound; for optical density, ypt1-ts, 12.5: 12.5 μM compound; for optical density, ypt1-ts, 25: 25 μM compound
Source text: The activity of the compounds as modulators of protein trafficking may be measured in the assays described herein that evaluate the ability of a compound to rescue an impairment in protein trafficking. For example, the yeast mutant cell line ypt1^ts can be used to identify compounds that rescue cells from the lethal phenotype of a mutant YPT1 allele (see, e.g., Examples and Schmitt et al. (1988) Cell 53:635-47). The activity may be measured, for example, in a whole yeast cell assay using 384-well screening protocol and an optical density measurement.
The yeast mutant cell line ypt1^ts suppresses, in a temperature dependent fashion, the dominant-lethal phenotype of a mutant YPT1 allele (Schmitt et al. (1988) Cell 53:635-47). ypt1^ts cells grow normally at temperatures up to 30° C., but are growth arrested at 37° C. (Id.).
A library of compounds (“The Spectrum Collection”) obtained from Microsource Discovery Systems, Inc. (Gaylordsville, Conn.) was screened to assess the ability of individual compounds to restore growth of ypt1^ts cells. Screening was carried out using ypt1^ts cells containing a mutation in the pdr5 gene (resulting in inactivation of a membrane efflux pump). The effect of the compounds was measured in pdr5 ypt1^ts cells cultured at 37° C.

[1] = Table 3, 3.13 uM compound, 37° C., background (0 uM) 0.077
[2] = Table 3, 12.5 uM compound, 37° C., background (0 uM) 0.077
[3] = Table 3, 50 uM compound, 37° C., background (0 uM) 0.077

| Compound | optical density, 3.13 uM [1] | optical density, 12.5 uM [2] | optical density, 50 uM [3] | minimal effective concentration (37° C.) [µM] | optical density, ypt1-ts, 0.39 (37° C.) | optical density, ypt1-ts, 0.78 (37° C.) | optical density, ypt1-ts, 1.56 (37° C.) | optical density, ypt1-ts, 3.13 (37° C.) | optical density, ypt1-ts, 6.25 (37° C.) | optical density, ypt1-ts, 12.5 (37° C.) | optical density, ypt1-ts, 25 (37° C.) | optical density, 3.13 uM | optical density, 12.5 uM | optical density, 50 uM |
| --- | --- | --- | --- | --- | --- | --- | --- | --- | --- | --- | --- | --- | --- | --- |
| COc1c(C(C)C)oc2cc3oc(=O)ccc3cc12 [PEUCEDANIN] | 0.138 | 0.25 | 0.461 |  |  |  |  |  |  |  |  |  |  |  |
| COc1cccc(/C=C/C(=O)O)c1C(C)C [2-ISOPROPYL-3- METHOXYCINNAMIC ACID] |  |  |  | 12.5 | 0.097 | 0.079 | 0.086 | 0.111 | 0.123 | 0.184 | 0.397 |  |  |  |
| AVOCATIN B | 0.451 | 0.032 | 0.032 |  |  |  |  |  |  |  |  |  |  |  |
| CC(C)c1ccc2c(c1)CCC1C(C)(C(N)=O)CCCC21C (stereo not shown) [DEHYDRO- ABIETAMIDE] | 0.272 | 0.419 | 0.041 |  |  |  |  |  |  |  |  |  |  |  |
| COc1cccc2c1CCC1CC(=O)CC[C@]21C (stereo partly shown) [14-METHOXY-4,4- BISNOR-8,11,13- PODOCARPATRIEN-3- ONE] |  |  |  | 12.5 | 0.088 | 0.074 | 0.075 | 0.088 | 0.096 | 0.191 | 0.48 |  |  |  |
| CCCCC1(COC(=O)CCC(=O)O)C(=O)N(c2ccccc2)N(c2ccccc2)C1=O [SUXIBUZONE, reference compound] |  |  |  | 3.13 | 0.101 | 0.078 | 0.093 | 0.127 | 0.173 | 0.329 | 0.536 |  |  |  |
| CN(C)C(=O)Nc1ccc(Cl)c(Cl)c1 [DIURON] |  |  |  | 25 | 0.082 | 0.073 | 0.087 | 0.081 | 0.095 | 0.101 | 0.132 |  |  |  |
| COc1ccc(C2CC(=O)c3ccc(OC)cc3O2)cc1 (stereo not shown) [LIQUIRITI- GENIN DIMETHYL ETHER] | 0.086 | 0.13 | 0.364 |  |  |  |  |  |  |  |  |  |  |  |
| C[C@]12CCC(=O)C[C@@H]1CC[C@@H]1[C@@H]2CC[C@]2(C)C(=O)CC[C@@H]12 [5alpha- ANDROSTAN- 3,17-DIONE] |  |  |  |  |  |  |  |  |  |  |  | 0.11 | 0.16 | 0.319 |
| CC(=O)[C@H]1CCC2C3C[C@H](C)C4=CC(=O)CC[C@]4(C)C3[C@@H](O)C[C@@]21C (stereo partly shown) [MEDRY- SONE, reference compound] | 0.114 | 0.165 | 0.266 |  |  |  |  |  |  |  |  |  |  |  |
| C=C1CCC2C(CC2(C)C)C(=C)CC/C1=N/O (stereo not shown) [5- HYDROXYIMINOISOC ARYOPHYLLENE] |  |  |  | 12.5 | 0.096 | 0.077 | 0.087 | 0.108 | 0.117 | 0.131 | 0.153 |  |  |  |
| COC(=O)C[C@H]1C(C)(C)C(=O)[C@@H]2CC3=C4CC(OC)O[C@@H](c5ccoc5)[C@]4(C)CCC3[C@@]1(C)C2=O (stereo partly shown) [16-DEOXO- MEXICANOLIDE 16-METHYL ETHER] | 0.3 | 0.528 | 0.55 |  |  |  |  |  |  |  |  |  |  |  |
| COc1ccc2c(c1)OCC(Cc1ccc(OC)c(OC)c1)C2=O (stereo not shown) [DEOXY- SAPPANONE B TRIMETHYL ETHER] | 0.107 | 0.203 | 0.514 |  |  |  |  |  |  |  |  |  |  |  |
